Data from patent US20240270760A1, “GLYCERIC ACID, GLYCERATE, AND COMPOSITION THEREOF” (INNER MONGOLIA KINGDOMWAY PHARMACEUTICAL CO., LTD., priority 2023, published 2024).

Key:
[1] = Dissolution of calcium glycerate forms in water at 37±0.2° C. (FIG. 9); format: physicochemical; details: comparison between forms
Alcohol metabolism = Alcohol metabolism test: ethanol content in venous blood after composition and ethanol feeding; format: in vivo, mice; details: for Percentage decrease compared to comparative group: decrease of venous blood ethanol content versus physiological saline group (75.0 mg/100 mL); for Ethanol content: venous blood 1 hour after 2 mL of 5% edible ethanol, 2 mL composition solution (4.5 g in 15 mL physiological saline) fed 1 hour before ethanol, 7 animals per group, GC-FID
Experimental: The test was divided into test groups and comparative groups. Each group included 7 healthy animals (e.g., mice). The healthy animals were fed in the laboratory for 10 days to adapt to the test environment, and then fasting was maintained 12 hours before the start of the test.
4.5 g of the compositions obtained in preparation examples 10-31 and comparative examples 1-8 were respectively dissolved in 15 mL of physiological saline to prepare composition solutions. The animals in the test groups were fed with 2 mL of the composition solution respectively, and the animals in the comparative group were fed with the same dose of normal saline. 1 hour later, the animals in the test groups and the comparative groups were fed with 2 mL of 5% edible ethanol, respectively. 1 hour later, the venous blood of the animals was collected. The ethanol content in the venous blood was detected by a gas chromatography-hydrogen flame ionization detector.

With `O=C([O][Ca][O]C(=O)[C@H](O)CO)[C@H](O)CO` [crystalline Form II, calcium D-glycerate] the dissolution rate [1] was “faster than that of crystalline Form I”.
In the case of `O=C(O)[C@H](O)CO` [compound 1, D-glyceric acid], the “Percentage decrease compared to comparative group” value (Alcohol metabolism) is reported as 14.8% and the Ethanol content (Alcohol metabolism) is reported as 63.9 mg/100 mL.
With `O=C(O)[C@H](O)CO` [compound 5, D-glyceric acid] the “Percentage decrease compared to comparative group” value (Alcohol metabolism) was 15.2% and the Ethanol content (Alcohol metabolism) was 63.6 mg/100 mL.
